Source: the supplement of paper PMC4862054

Key:
Experiment in all cases: drug sensitivity score (DSS), CellTiter-Glo (DSS (AUC-based score)); higher = stronger drug effect (viability inhibition or cytotoxicity); extreme values may be limits of the assay
Conditions in all cases: incubation time: 72 h
CAL-120 = tested on: CAL-120
Method in brief: (§1)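 The drug sensitivity score reflects the area under a fitted dose-response curve. To obtain it, breast cancer cells in 20 µl suspension were seeded into 384-well plates containing compound at 5 concentrations, 10-fold apart over a compound-specific 10,000-fold range, and incubated 72 h. CellTox Green fluorescence (485/520 nm) was read first and CellTiter-Glo luminescence second, after 10 min at room temperature. Each plate was normalised to 0.1 % DMSO and a positive kill control.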

MFM-223 = tested on: MFM-223
Method in brief: as §1

MDA-MB-468 = tested on: MDA-MB-468
Method in brief: as §1

MDA-MB-453 = tested on: MDA-MB-453
Method in brief: as §1

MDA-MB-436 = tested on: MDA-MB-436
Method in brief: as §1

HCC1599 = tested on: HCC1599
Method in brief: as §1

HDQ-P1 = tested on: HDQ-P1
Method in brief: as §1

CAL-51 = tested on: CAL-51
Method in brief: as §1

Structure (SMILES) | drug sensitivity score (CAL-120) | drug sensitivity score (MFM-223) | drug sensitivity score (MDA-MB-468) | drug sensitivity score (MDA-MB-453) | drug sensitivity score (MDA-MB-436) | drug sensitivity score (HCC1599) | drug sensitivity score (HDQ-P1) | drug sensitivity score (CAL-51)
O=C(c1cc(Cc2n[nH]c(=O)c3ccccc23)ccc1F)N1CCN(C(=O)C2CC2)CC1 [Olaparib] | 1.26 | 0 | 2.57 | 0 | 4.69 | 0 | 0 | 10.1
Cc1cc2c(F)c(Oc3ncnn4cc(OC[C@@H](C)O)c(C)c34)ccc2[nH]1 [Brivanib] | 0 | 0 | 0 | 0 | 0 | 0 | 0 | 1.49
CC[C@H](CC#N)OC(=O)N[C@@H](C)c1cccc(NC(=O)Nc2ccc(-c3cnco3)c(OC)c2)c1 [AVN944] | 8.08 | 6.05 | 17.1 | 0 | 12.9 | 11.4 | 11.7 | 16.5
CC(C)C[C@H](NC(=O)[C@H](CCc1ccccc1)NC(=O)CN1CCOCC1)C(=O)N[C@@H](Cc1ccccc1)C(=O)N[C@@H](CC(C)C)C(=O)[C@@]1(C)CO1 [Carfilzomib] | 19 | 28.1 | 29.9 | 22.7 | 26.5 | 10.9 | 20.7 | 22.1
CO[C@H]1C[C@@H]2CC[C@@H](C)[C@@](O)(O2)C(=O)C(=O)N2CCCC[C@H]2C(=O)O[C@H]([C@H](C)C[C@@H]2CC[C@@H](O)[C@H](OC)C2)CC(=O)[C@H](C)/C=C(\C)[C@@H](O)[C@@H](OC)C(=O)[C@H](C)C[C@H](C)/C=C/C=C/C=C/1C [Sirolimus] | 6 | 5.41 | 12.2 | 6.86 | 3.52 | 0 | 2.98 | 7.01
Cn1cc(C[C@@H](N)C(=O)O)c2ccccc21 [1-methyl-D-tryptophan] | 0 | 0 | 0 | 0 | 0 | 0 | 0 | 0
O=C(O)CC[C@H]1CC[C@@](c2cc(F)ccc2F)(S(=O)(=O)c2ccc(Cl)cc2)CC1 [MK-0752] | 0 | 0 | 0 | 0 | 0 | 0 | 0 | 0
COc1cc2c(cc1-c1c(C)noc1C)ncc1[nH]c(=O)n([C@H](C)c3ccccn3)c12 [I-BET151] | 5.1 | 6.13 | 3.38 | 7.96 | 0 | 0 | 3.02 | 3.89
Cn1nnc2c(C(N)=O)ncn2c1=O [Temozolomide] | 0 | 0 | 0 | 0 | 0 | 0 | 0 | 0
CC[C@@H]1C(=O)N(C)c2cnc(Nc3ccc(C(=O)N[C@H]4CC[C@H](N5CCN(CC6CC6)CC5)CC4)cc3OC)nc2N1C(C)C [Volasertib] | 7.64 | 15.5 | 14.8 | 12 | 12.9 | 10.3 | 5.3 | 16.3
COc1cc2c(N3CCN(C(=O)Nc4ccc(OC(C)C)cc4)CC3)ncnc2cc1OCCCN1CCCCC1 [Tandutinib] | 0 | 0 | 0 | 0 | 0 | 0 | 0 | 0
NC(=O)NO [Hydroxyurea] | 0 | 0 | 0 | 0 | 0 | 0 | 0 | 16.2
C[C@@H](C(=O)O)c1ccc(-c2ccccc2)c(F)c1 [Tarenflurbil] | 0 | 0 | 0 | 0 | 0 | 0 | 0 | 0
CCCc1cc(C)[nH]c(=O)c1CNC(=O)c1cc(-c2ccnc(N3CCN(C)CC3)c2)cc2c1cnn2C(C)C [GSK343] | 0 | 2.85 | 5.85 | 6.37 | 1.6 | 3.37 | 0 | 0
Cc1c(N)nc([C@H](CC(N)=O)NC[C@H](N)C(N)=O)nc1C(=O)N[C@H](C(=O)N[C@H](C)[C@@H](O)[C@H](C)C(=O)N[C@H](C(=O)NCCc1nc(-c2nc(C(=O)NCCC[S+](C)C)cs2)cs1)[C@@H](C)O)[C@@H](OC1OC(CO)C(O)C(O)C1OC1OC(CO)C(O)C(OC(N)=O)C1O)c1cnc[nH]1 (stereo not given in full) [Bleomycin] | 0.67 | 0 | 0 | 0 | 4.49 | 0 | 0 | 16.1
